Measurements reported in patent publication US20120101087A1, “Generation of Combinatorial Synthetic Libraries and Screening for Novel Proadhesins and Nonadhesins” (priority 2007, published 2012).
Read-outs that look alike come from different tables or passages of the source.

How the values were obtained:
[1] = Solubility in water (solubility classes of screening compounds); assay type: physicochemical
[2] = tested on: Dengue 2 (DENV-2 strain NG-2); experiment: microbe, parasite or virus in culture; assay type: cell-based, Dengue virus
[3] = tested on: MRSA Staphylococcus aureus; experiment: Anti-adhesion assay for MRSA Staphylococcus aureus; assay type: cell-based; details: for IC50: read-out: IC50 anti-adhesion MRSA Staphylococcus aureus; for ICMAX (μM), IC100: maximal inhibition given as IC100
Colletotrichum acutatum = experiment: Petri dish assay for activity against Colletotrichum acutatum (spore adhesion to polystyrene)
Dengue virus = experiment: Direct binding assay (DART TOF-MS) to Dengue virus; details: FIG. 6
Text: The virus particles were collected and fixed in 100% (USP) ethanol prior to DART TOF-MS analysis. The closed end of a borosilicate glass capillary tube was immersed in the virion solution and passed through the DART He plasma to obtain mass spectra of virion surface-bound chemistries. […] The same conditions were used to assess the binding of composition here to bacterial species.

Staphylococcus areus = experiment: Direct binding assay (DART TOF-MS) to Staphylococcus aureus; details: FIG. 7
P. aerug. = experiment: Effectiveness towards P. aerug. (cystic fibrosis application, IC50 % wt/vol); assay type: cell-based, Pseudomonas aeruginosa
S. aureus = experiment: Effectiveness towards S. aureus (IC50 % wt/vol); assay type: cell-based, Staphylococcus aureus

SMILES: CNC(=O)C(Cc1ccc(OS(C)(=O)=O)cc1)NC(=O)COCC(=O)Nc1cccc(OS(C)(=O)=O)c1 (stereo not shown) [Compound A02]
- Solubility in water [1]: insoluble in water

SMILES: CNC(=O)C(Cc1ccc(OS(=O)(=O)C(F)(F)F)cc1)NC(=O)COCC(=O)Nc1cccc(OS(=O)(=O)C(F)(F)F)c1 (stereo not shown) [Compound B02]
- Solubility in water [1]: insoluble in water

SMILES: CCN(CCOC(=O)/C=C/c1ccc(O)cc1)Cc1cc(Cl)ccc1O [Compound I]
- Dengue infection when compound is bound to virus ([2]; FIG. 6, virions from direct binding assay): inhibited
- Adhesion of Staphylococcus areus when compound is bound ([3]; FIG. 7): blocks adhesion
- ICMAX (μM), IC70 ([3]; maximal inhibition printed as IC70, value is the concentration): IC70 - 120 μM
- IC50 (% wt/vol), pathogen C. acut. (Colletotrichum acutatum): 0.004 % wt/vol
- Direct binding to Dengue virus (DART-MS peak) (Dengue virus): direct binding
- Direct binding to Staphylococcus areus (DART-MS peak) (Staphylococcus areus): binds to the bacteria
- IC50 (% wt/vol), pathogen P. aerug. (P. aerug.): 0.001 % wt/vol

SMILES: CN(CCCNC(=O)c1ccc(O)cc1)CCCNC(=O)c1ccc2cc(O)ccc2c1 [III]
- IC50 ([3]; Staphylococcus aureus, MRSA): 7.1 µM
- ICMAX (μM), IC100 ([3]; value is the concentration): IC100 - 100 μM
- IC50 (% wt/vol), pathogen C. acut. (Colletotrichum acutatum): <0.005 % wt/vol
- IC50 (% wt/vol), pathogen S. aure. (S. aureus): <0.017 % wt/vol
- IC50 (% wt/vol), pathogen P. aerug. (P. aerug.): 0.001 % wt/vol

SMILES: CN(CCCNC(=O)c1ccc(O)cc1)CCCNC(=O)c1ccc(O)cc1 [IV]
- IC50 ([3]; Staphylococcus aureus, MRSA): 1.5 µM
- IC90 ([3]; Staphylococcus aureus, MRSA, read-out: ICMAX (μM), IC90): 10 µM

SMILES: O=C(c1ccc(O)cc1)N1CCCN(C(=O)c2ccc3cc(O)ccc3c2)CC1 [VI]
- IC50 ([2]; Dengue virus, DENV2, LLC-MK2, read-out: IC50 Dengue 2, anti-infection (adhesion)): 114 µM
- IC50 ([3]; Staphylococcus aureus, MRSA): 2.5 µM
- ICMAX (μM), IC100 ([3]; value is the concentration): IC100 - 10 μM
- IC50 (% wt/vol), pathogen C. acut. (Colletotrichum acutatum): <0.005 % wt/vol
- IC50 (% wt/vol), pathogen S. aure. (S. aureus): <0.017 % wt/vol
- IC50 (% wt/vol), pathogen P. aerug. (P. aerug.): <0.005 % wt/vol

SMILES: O=C(O)/C=C/c1ccc(OS(=O)(=O)O)cc1 [Zosteric Acid, reference compound]
- IC50 ([2]; from graph of % inhibition versus concentration, read-out: IC50 Dengue 2, anti-infection (adhesion)): 1190 µM
- ICMAX (μM), IC100 ([3]; value is the concentration): IC100 - 90 μM
- IC50 [3]: 24.8 µM
